“Also recorded” adds a separate entry of the source. Read-outs that look alike come from different tables or passages of the source.
How the values were obtained:
[1] = target: T1, recombinant active full-length human MEK7 (Homo sapiens, UniProt O14733); test: ADP-Glo kinase activity assay, MEK7 with JNK1 substrate; assay type: biochemical
T1 construct: recombinant active full-length human MEK7 (Carna Biosciences); purchased Carna Biosciences
T1 sequence (O14733 1-419): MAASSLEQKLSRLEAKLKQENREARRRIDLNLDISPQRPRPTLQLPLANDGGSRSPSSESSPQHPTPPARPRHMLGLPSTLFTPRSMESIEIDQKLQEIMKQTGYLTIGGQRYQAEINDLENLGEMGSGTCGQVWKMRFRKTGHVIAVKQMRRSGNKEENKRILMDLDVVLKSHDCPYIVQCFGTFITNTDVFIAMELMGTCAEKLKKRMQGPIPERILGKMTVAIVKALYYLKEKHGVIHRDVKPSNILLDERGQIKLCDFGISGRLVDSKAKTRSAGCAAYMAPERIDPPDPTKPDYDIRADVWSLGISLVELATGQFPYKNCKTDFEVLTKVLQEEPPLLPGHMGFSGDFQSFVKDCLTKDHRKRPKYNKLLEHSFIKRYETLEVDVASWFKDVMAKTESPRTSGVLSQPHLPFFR
Experimental: Procedure for a 5 μL Kinase reaction using the ADP-Glo Kinase Assay Kit from Promega. Staurosporine was used as the positive control, and DMSO (vehicle) was employed as the negative control. Activity of recombinant active full-length human MEK7 (Carna Biosciences) was measured with recombinant full-length human substrate JNK1 (MAPK8). Using a Mantis, a mixture of MEK7 and JNK1 was dispensed into a 384-well low volume white Proxiplate. For each well, 4 ng of MEK7 and 600 ng of JNK1 in kinase buffer (CST) were used, accounting for 1 μL of this mixture per well. Inhibitor was prepared in a DMSO solution (40 mM). A dose-response dilution was performed in a 384-well Echo transfer plate. Using an Echo Access, 10 nL of each solution was dispensed into the same 384-well low volume white Proxiplate as above. This mixture was allowed to incubate for 30 minutes at room temperature. Using a Mantis, 1 uL of an 8 μM ATP solution was added to each well, and the plate was allowed to incubate for another 1 hour at room temperature. Using the Mantis again, 4 μL of ADP Glo Reagent was dispensed into each well, and the plate was allowed to incubate for 45 min at room temperature. Finally, 9 μL of Kinase Detection Reagent was added manually to each well, and the plate was allowed to incubate for 45 minutes at room temperature. Luminescence was read on a Synergy Neo2 Plate Reader with filter cubes 3 and 114. Integration time was set to 0.20 seconds, gain set to 160, and read height set at 6 mm. All experiments were performed in triplicate on the plate, and at least in one separate technical duplicate was performed.
MEK4 selectivity was performed in the same manner with activated MEK4 (Carna Biosciences). Here, p-38α was employed as the kinase substrate in lieu of JNK1 due to the availability of reagents. […] To probe the ATP-competitive nature of 25, this compound was subjected to a similar assay forgoing the 30 minute incubation time described above (STAR Protocols 2021, 2, 100717). The results are tabulated below in compound characterization. Potency determined by duplicate of triplicates corresponded to a IC50 value, which is in line with the ratio difference observed among other covalent inhibitors (for examples, see Cell Chem. Biol. 2020, 27, 1285).

MEK3 = target: T2, MEK3 (Homo sapiens, UniProt P46734); test: Additional selectivity assay, MEK3 (FIG. 9); assay type: binding
T2 sequence (P46734 1-347): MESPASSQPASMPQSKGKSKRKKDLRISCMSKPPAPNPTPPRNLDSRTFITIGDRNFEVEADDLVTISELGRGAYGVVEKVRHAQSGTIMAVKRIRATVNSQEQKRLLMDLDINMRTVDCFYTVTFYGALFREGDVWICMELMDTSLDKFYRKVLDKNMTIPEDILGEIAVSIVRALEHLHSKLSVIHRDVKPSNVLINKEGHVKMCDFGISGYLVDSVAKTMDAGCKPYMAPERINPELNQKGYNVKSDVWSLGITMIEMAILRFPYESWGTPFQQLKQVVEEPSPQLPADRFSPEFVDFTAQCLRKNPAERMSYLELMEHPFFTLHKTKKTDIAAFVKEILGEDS

[2] = target: T3, MAP2K7 recombinant protein (Homo sapiens, UniProt O14733); test: LC/MS-MS determination of residue selectivity; assay type: binding
T3 construct: purchased Carna Biosciences 07-147-10; host or cells: E. coli
T3 sequence (O14733 1-419): T1 sequence (O14733 1-419)
Experimental: MAP2K7 recombinant protein was diluted, purified, and incubated as described above. After incubation, protein solution was denatured with 8 M urea for 10 minutes at 65° C., reduced with 12.5 mM DTT for 15 minutes at 65° C., and alkylated with 25 mM iodoacetamide in the absence of light for 30 minutes at 37° C. Protein solution was diluted with PBS to 2 M urea and divided into two digestion reactions: one with 2 μg trypsin and 10 μg chymotrypsin for 6 hours at 37° C., the other with 5 μg GluC for 6 hours at 37° C. Digested peptides were acidified with 5% formic acid and desalted using Sep-Pak C18 1 cc Vac Cartridge (Waters). Peptides were analyzed by liquid chromatography tandem mass-spectrometry using an Orbitrap Eclipse Tribrid Mass Spectrometer (Thermo Scientific) coupled to an Vanquish Neo UHPLC System (Thermo Scientific). Peptides were injected onto EASY-Spray HPLC Column (C18, 2 μm particle size, 75 μm inner diameter, 250 mm length) and separated at a flow rate of […] using the following gradient: 5% buffer B (80% acetonitrile with 0.1% formic acid) in buffer A (water with 0.1% formic acid) from 0-15 min, 5-45% buffer B from 15-155 min, 45-100% buffer B from 155-180 min. Raw data was searched in Proteome Discoverer 2.5 (Thermo Scientific).

IC50 ([1]; 30 min preincubation, read-out: MEK7 IC50): 10 nM
IC50 ([1]; MEK7 IC50, first experiment (IC50±SEM, n=3), 30 min preincubation, first value in brackets): 17 nM
IC50 ([1]; MEK7 IC50, second experiment (IC50±SEM, n=3), 30 min preincubation, second value in brackets): < 1.4 nM
IC50 ([1]; MEK7 IC50 without preincubation, first experiment (n=3), without preincubation, first value in brackets): 67 ± 21 nM
IC50 ([1]; MEK7 IC50 without preincubation, second experiment (n=3), without preincubation, second value in brackets): 119 nM
IC50 ([1]; without 30 min preincubation, overall value, read-out: MEK7 IC50 without preincubation): 93 nM
IC50 ([1]; without preincubation, no unit printed, read-out: MEK7 IC50 without preincubation): 93 nM
activity/binding at MEK3 (MEK3): inactive; also recorded: lack of binding
cysteine residue covalently engaged, GluC digest [2]: Cys341
cysteine residue covalently engaged, trypsin/chymotrypsin digest [2]: Cys218
SMILES: O=C(CCl)Nc1cccc(Oc2cc(NCc3ccccc3)ncn2)c1 [Compound 25, N-(3-((6-(benzylamino)pyrimidin-4-yl)oxy)phenyl)-2-chloroacetamide]

From patent US20250049791A1, “Synthesis of MEK7 Inhibitors and methods of Use Thereof” (Northwestern University, priority 2023, published 2025)
